Reference: BigSolDB 2.1

[NH3+]C1CCCCC1.[S-]c1nc2ccccc2s1
solubility (mole fraction)
Conditions	303.15 K	308.15 K	313.15 K	318.15 K	323.15 K	328.15 K	333.15 K	338.15 K	343.15 K	348.15 K
in 1,4-dioxane	0.000208	0.000291	0.000418	0.000608	0.000793	0.00105	0.00141	0.00169	0.00217	0.00266
in MIBK	0.000389	0.000506	0.000672	0.00085	0.00111	0.00141	0.00177	0.00215	0.00252	0.00306
in toluene	2e-05	4.26e-05	5.64e-05	6.78e-05	8.02e-05	0.000121	0.000175	0.00026	0.000344	0.000421
in water	1.32e-05	1.95e-05	2.59e-05	3.24e-05	4e-05	5.4e-05	7.55e-05	8.97e-05	0.000124	0.000164
